Holding throughout (type): in vivo, rat
Data set [1] can be described thus: Left ventricular function and systemic blood pressure in treated monocrotaline-exposed rats. The settings on record: for adverse effects on left ventricular cardiac function: daily BAPN or daily i.p. verteporfin 25 mg/kg.
Data set [2] concerns monocrotaline-exposed rats. Briefly: Histology and immunofluorescence of lung sections of monocrotaline-exposed rats. The settings on record: for CD31/PCNA and α-SMA/PCNA double-positive cells (vascular endothelial and smooth muscle proliferation) / GLS1 vascular intensity / YAP1+ cells / vessel thickness and muscularization (vascular remodeling): daily BAPN or daily i.p. verteporfin 25 mg/kg; for pulmonary arteriolar muscularization / pulmonary arteriolar remodeling / Ki67/PCNA positive cells in CD31/vWF+ endothelial compartment / Ki67/PCNA positive cells in α-SMA+ medial (smooth muscle) compartment: daily i.p. 10 mg/kg; for pulmonary arteriolar muscularization / pulmonary arteriolar remodeling: C968 from day 2, CB839 from day 7. On the procedure:
Lung sections (5 μm) were deparaffinized and high temperature antigen retrieval was performed, followed by blocking in TBS/BSA 5%, 10% donkey serum and exposure to primary antibody and biotinylated secondary antibody (Vectastain ABC kit, Vector Labs) for immunohistochemistry or Alexa 488, 568 and 647-conjugated secondary antibodies (Thermo Fisher Scientific) for immunofluorescence. A primary antibody against YAP1 (#4912; 1/200 or sc101199; 1/50) were obtained from Cell Signaling and Santa Cruz Biotechnology respectively. Primary antibodies against, GLS1 (ab156876; 1/100), PC (ab115579; 1/100), LDHA (ab47010; 1/200) and α-SMA (ab32575; 1/1000) were purchased from Abcam. A primary antibody against CD31 (sc-1506; 1/100), was purchased from Santa Cruz Biotechnology. A primary antibody against PCNA (13-3900, 1/100) was purchased from Thermo Fisher Scientific. In most cases, color development was achieved by adding streptavidin-biotinylated alkaline phosphatase complex (Vector Labs) followed by Vector Red alkaline phosphatase substrate solution (Vector Labs). Levamisole was added to block endogenous alkaline phosphatase activity (Vector Labs). Pictures were obtained using an Olympus Bx51 microscope or ZEISS LSM Exciter confocal microscope. Small pulmonary vessels (<100 µm diameter) present in a given tissue section (>10 vessels/section) that were not associated with bronchial airways were selected for analysis (N>5 animals/group). Intensity of staining was quantified using ImageJ software (NIH). Degree of pulmonary arteriolar muscularization was assessed in paraffin-embedded lung sections stained for α-SMA by calculation of the proportion of fully and partially muscularized peripheral (<100 μm diameter) pulmonary arterioles to total peripheral pulmonary arterioles, as previously described (12). All measurements were performed blinded to condition.
To induce PH, male Sprague-Dawley rats (10-14 week old) were injected intraperitoneally with 60 mg/kg monocrotaline (Sigma-Aldrich). After two days, rats underwent intraperitoneal injection daily with 25 mg/kg of verteporfin (Active Biochemicals Company, Ltd) solubilized in 5% dimethyl sulfoxide (DMSO, Sigma-Aldrich). Two days after the last injection on day 21 post-monocrotaline injection, right heart catheterization was performed followed by harvest of lung tissue and CD31+ cells for RNA or protein extraction, paraffin embedding, or cryopreservation with OCT (Sigma-Aldrich), as we described (2).
To induce PH, male Sprague-Dawley rats (10-14 week old) were injected intraperitoneally with 60 mg/kg monocrotaline (Sigma-Aldrich). After two days, serial intraperitoneal injections were given daily of C968 (10 mg/kg, Sigma-Aldrich), and after seven days post-monocrotaline injection, serial intraperitoneal injections were given daily of CB839 (10 mg/kg, Selleck Chemicals). Two days after the last injection on day 21 post-monocrotaline injection, right heart catheterization was performed followed by harvest of lung tissue and CD31+ cells for RNA or protein extraction, paraffin embedding, or cryopreservation with OCT (Sigma-Aldrich), as we described (2).

The next data set concerns YAP/TAZ target genes. Briefly: RT-qPCR of YAP/TAZ target genes in CD31+ cells of monocrotaline-exposed rats. The settings on record: daily BAPN or daily i.p. verteporfin 25 mg/kg. On the procedure: Messenger RNAs were reverse transcribed using the Multiscript RT kit (Life Technologies) to generate cDNA. cDNA was amplified via fluorescently labeled Taqman primer sets using an Applied Biosystems 7900HT Fast Real Time PCR device. To specifically determine the relative expression of the two GLS1 isoforms KGA and GAC, TaqMan gene expression assays Hs01014019_m1 and Hs01022166_m1 were used respectively. Fold-change of RNA species was calculated using the formula (2^−ΔΔCt), normalized to RPLP0 expression.
As previously reported (8, 11), lobes of lung tissue from a rat were diced with scissors, to which 200 μL of collagenase D solution (Sigma) was added for a final concentration of 2 mg/ml collagenase D in 4.8 mL HEPES buffer (pH=7.4). After incubation for 30 min at 37° C. with automated rotation, 20 μL of DNase I (Sigma, final concentration of 80 U/mL DNase I) was added and incubated on ice for 30 min. The solution was filtered twice by a 70 μm cell strainer (BD Biosciences) to yield a single cell suspension. After two rounds of PBS wash, cell pelleting, and resuspension, the ACK lysing buffer (Gibco) was used to remove erythrocytes. Remained cells were incubated 30 min at 4° C. with a mouse anti-rat-CD31 antibody (BD Pharmigen 555025). Cells were PBS washed twice and incubated 15 min with anti-mouse IgG1 MicroBeads (Miltenyi Biotec) according to the manufacturer protocol. Single CD31-positive cells were then collected using an autoMACS Pro Separator, per the manufacturer's instructions (Miltenyi Biotec). The purity (>95%) of CD31 positive cells was confirmed by flow cytometric analysis by a FACScan flow cytometer (BD Biosciences) after cells labeling with the FITC-conjugated anti-CD31 (ab33858, Abcam).
To induce PH, male Sprague-Dawley rats (10-14 week old) were injected intraperitoneally with 60 mg/kg monocrotaline (Sigma-Aldrich). After two days, rats underwent intraperitoneal injection daily with 25 mg/kg of verteporfin (Active Biochemicals Company, Ltd) solubilized in 5% dimethyl sulfoxide (DMSO, Sigma-Aldrich). […]
(In general: In qPCR the cycle at which signal appears reflects the starting amount.)

The mark [3] stands for this setting: daily i.p. 10 mg/kg C968 or CB-839, data not shown.
Setting [4] is: C968 from day 2, CB839 from day 7, 10 mg/kg.
Where [5] appears, read: C968 from day 2, CB839 from day 7, listed as CB-839, 10 mg/kg.

Molecules are shown by their SMILES. “Also recorded” adds a separate entry of the source.

`N#CCCN` [BAPN, β-aminoproprionitrile]: in data set [1] (data not shown), the “adverse effects on left ventricular cardiac function” value is recorded as “without adverse effects”. Also, in data set [2], the “CD31/PCNA and α-SMA/PCNA double-positive cells (vascular endothelial and smooth muscle proliferation)” value is on record as “decreased”; the GLS1 vascular intensity result is listed as “decreased”; the “YAP1+ cells” value was “decreased”; the “vessel thickness and muscularization (vascular remodeling)” value (“vessel thickness and muscularization” for short) is “decreased; also recorded: ameliorated”. Moreover, the “CTGF and CYR61, YAP/TAZ target genes (YAP1-dependent gene expression)” value (“CTGF and CYR61, YAP/TAZ target genes” for short) in the data set on YAP/TAZ target genes is reported as “decrease”.
For the compound `CN(C)c1ccc(C2Nc3ccc4ccccc4c3C3=C2C(=O)CC(C)(C)C3)cc1Br` (stereo not drawn) [C968, 5-(3-Bromo-4-(dimethylamino)phenyl)-2,2-dimethyl-2,3,5,6-tetrahydrobenzo[a]phenanthridin-4(1H)-one], in data set [1] (setting [3]), the “adverse effects on left ventricular function” value is “without adverse effects” and the “adverse effects on systemic blood pressure” value was “without adverse effects”. In data set [2], the pulmonary arteriolar muscularization entry is “significantly decreased” and the pulmonary arteriolar remodeling result was “significantly decreased”. In data set [2] (setting [4]), the “Ki67/PCNA positive cells in CD31/vWF+ endothelial compartment” value was “reduced; also recorded: decreased” and the “Ki67/PCNA positive cells in α-SMA+ medial (smooth muscle) compartment” value is given as “reduced; also recorded: decreased”.
In the case of `O=C(Cc1cccc(OC(F)(F)F)c1)Nc1ccc(CCCCc2nnc(NC(=O)Cc3ccccn3)s2)nn1` [CB839], in data set [1] (setting [3]), the “adverse effects on left ventricular function” value is “without adverse effects” and the “adverse effects on systemic blood pressure” value is recorded as “without adverse effects”. For the same compound, in data set [2], the pulmonary arteriolar muscularization result was “significantly decreased” and the pulmonary arteriolar remodeling result was “significantly decreased”. For the same compound, in data set [2] (setting [4]), the “Ki67/PCNA positive cells in CD31/vWF+ endothelial compartment” value is reported as “reduced” and the “Ki67/PCNA positive cells in α-SMA+ medial (smooth muscle) compartment” value is “reduced”. Also, in data set [2] (setting [5]), the “Ki67/PCNA positive cells in CD31/vWF+ endothelial compartment” value is listed as “decreased” and the “Ki67/PCNA positive cells in α-SMA+ medial (smooth muscle) compartment” value is recorded as “decreased”.
As to `C=Cc1c(C)c2cc3nc(cc4[nH]c(cc5nc(cc1[nH]2)C(C)=C5CCC(=O)O)c(CCC(=O)OC)c4C)[C@@]1(C)C3=CC=C(C(=O)OC)[C@H]1C(=O)OC` [Verteporfin, 3-[(23S,24R)-14-ethenyl-5-(3-methoxy-3-oxopropyl)-22,23-bis(methoxycarbonyl)-4,10,15,24-tetramethyl-25,26,27,28-tetraazahexacyclo[16.6.1.1^3,6.1^8,11.1^13,16.0^19,24]octacosa-1,3,5,7,9,11(27),12,14,16,18(25),19,21-dodecaen-9-yl]propanoic acid], the “adverse effects on left ventricular cardiac function” value in data set [1] (data not shown) is listed as “without adverse effects”. Also, in data set [1] (daily i.p. verteporfin 25 mg/kg, data not shown), the “adverse effects on systemic blood pressure” value is on record as “without adverse effects”. Moreover, in data set [2], the “CD31/PCNA and α-SMA/PCNA double-positive cells (vascular endothelial and smooth muscle proliferation)” value is “decreased”; the GLS1 vascular intensity entry is listed as “decreased”; the “YAP1+ cells” value is listed as “decreased”; the “vessel thickness and muscularization” value is recorded as “decreased”. Also, in data set [2] (listed as verteporfin), the “CD31/PCNA and α-SMA/PCNA double-positive cells (vascular endothelial and smooth muscle proliferation)” value is on record as “improved”; the “vessel thickness and muscularization” value is “reductions”. For the same compound, the “CTGF and CYR61, YAP/TAZ target genes” value in the data set on YAP/TAZ target genes is on record as “decrease”. In addition, the “CTGF and CYR61, YAP/TAZ target genes” value in the data set on YAP/TAZ target genes (listed as verteporfin) is reported as “decreased”.

For the origin of these results see patent publication US11672795B2, “Compositions and methods for treating pulmonary vascular disease” (UNIVERSITY OF PITTSBURGH-OF THE COMMONWEALTH SYSTEM OF …, priority 2016, dated 2023).
